Laboratory results published in patent publication US10139415B2, “Method for predicting responsiveness to compound inhibiting MAPK signal transduction pathway” (DAIICHI SANKYO COMPANY, LIMITED, priority 2013, dated 2018).
Read-outs that look alike come from different tables or passages of the source.

Legend:
MEK = settings: cited from earlier work
SW48 cells [1] = experiment: cell cycle measurement / apoptosis induction (PI staining, flow cytometer); assay type: cell-based; settings: at the concentration that completely inhibited phosphorylation of ERK, 48 hours
Description: (§1) A cell cycle measurement was performed by propidium iodide (PI) staining as described below. First, cells were subjected to drug treatment after 24 hours from seeding thereof in a 6-well plate. After collecting the culture medium and trypsinized cells, they were subjected to centrifugation at 1,000 g for 5 minutes, and the supernatant was removed. 1 mL of PBS^− was added to suspend the cells. The suspension was transferred to a 1.5-mL tube and then subjected to centrifugation treatment at 13,000 g for 1 minute, and the supernatant was removed. 200 μL of PBS^− was added to the residue to suspend the cells, and 1 mL of ice-cold 70% ethanol was added. Then, the cells were vortexed and immobilized at 4° C.
(§2) The immobilized cells were subjected to centrifugation at 1,000 g for 5 minutes, and the supernatant was removed. 1 mL of a PBS^− solution containing 10 μg/mL of RNase was added to the residue to suspend the cells, which was left to stand still at 37° C. for 20 minutes. After that, centrifugation was performed for 5 minutes, and then the supernatant was removed. […] of a PBS^− solution containing PI (50 μg/mL, manufactured by Wako) was added to the residue to suspend the cells. The total volume thereof was passed through a nylon mesh (φ=42 μm) and used as a sample. An intracellular DNA content was detected with PMT4 of a flow cytometer (manufactured by Beckman Coulter) to measure a cell cycle.
(§3) 48 hours after the drug treatment, the cells were collected and subjected to ethanol fixation and PI staining to measure a DNA content with a flow cytometer. […] In addition, the expression amount of a target molecule being phosphorylated was calculated compared to the expression amount of a target molecule to evaluate the influence on a cell cycle at such a concentration of inhibiting the expression of the phosphorylation of the target molecule by 95% or more.
(§4) 48 hours after the drug treatment, the cells were collected and subjected to ethanol fixation and PI staining to measure a DNA content with a flow cytometer. In addition, in order to measure target molecule inhibitory activity in the drug-treated cells, the expression of ERK, phosphorylated ERK, MEK, phosphorylated MEK, and actin in the cells was evaluated by western blotting 24 hours after the drug treatment. In addition, the expression amount of a target molecule being phosphorylated was calculated compared to the expression amount of a target molecule to evaluate the influence of each inhibitor on a cell cycle at such a concentration that the expression of the phosphorylation of the target molecule was inhibited by 95% or more.

DLD-1 cells = experiment: as above; assay type: cell-based; settings: at the concentration that completely inhibited phosphorylation of ERK, 48 hours
Description: as §1, §2, §3, §4

HT29 cells = experiment: as above; assay type: cell-based; settings: at the concentration that completely inhibited phosphorylation of ERK, 48 hours
Description: as §1, §2, §3, §4

HCT_116 cells [2] = experiment: as above; assay type: cell-based; settings: at the concentration that completely inhibited phosphorylation of ERK (MEK and ERK for SB590885), 48 hours
Description: as §1, §2, §3, §4

A375 cells = experiment: as above; assay type: cell-based
Description: as §1, §2, §3, §4

[3] = test system: malignant melanoma having an active BRAF mutation; settings: patients with malignant melanoma having an active BRAF mutation, clinical trial; cited from earlier work
SK-MEL-1 cells = experiment: cell growth-suppressive activity test; assay type: cell-based; settings: 2D and 3D culture, 72 hours, CellTiter-Glo
Description: (§5) A cell growth-suppressive activity test was performed in both of two-dimensional culture and three-dimensional culture. First, a plate for three-dimensional culture was produced. Specifically, poly(2-hydroxyethyl methacrylate) (hereinafter abbreviated as poly-HEMA, manufactured by Sigma) was added to 95% ethanol so that the concentration was 5 mg/mL, and dissolved therein at 37° C. overnight. The solution was used as a poly-HEMA solution. The solution was loaded into a 96-well plate (manufactured by Nunc) at 50 μL/well. The plate was dried at 37° C. to produce a plate for three-dimensional culture coated with poly-HEMA.
(§6) The two-dimensional culture (hereinafter sometimes referred to as 2D culture) and the three-dimensional culture (hereinafter sometimes referred to as 3D culture) were performed by seeding the cells in a 96-well plate at 1×10^3 cells/150 μL/well and 2×10^3 cells/75 μL/well, respectively, and performing drug treatment on the following day. The total volume was set to 200 μL in the two-dimensional culture, and the total volume was set to 100 μL in the three-dimensional culture. Cell growth was measured by measuring intracellular ATP amounts at the time of the drug treatment and 72 hours after the drug treatment. Specifically, after the removal of the culture medium at 100 μL/well, CellTiter-Glo (manufactured by Promega) was added at 50 μL/well in the two-dimensional culture, and CellTiter-Glo was added at 50 μL/well in the three-dimensional culture. After the addition, the plate was shaken with a shaker for 2 minutes and left to stand still at room temperature for 10 minutes. The total volume of each well was transferred to a white 96-well plate (manufactured by Nunc) and measured for its light emission intensity with a Wallac 1420 multilabel counter (manufactured by Perkin Elmer). From the resultant light emission amount, a growth ratio (Growth (%)) relative to a non-drug-treated sample after 72 hours was determined using the following mathematical formula 1 and mathematical formula 2.

SW48 cells [4] = experiment: cell growth-suppressive activity test; assay type: cell-based; settings: 2D and 3D culture, 72 hours, CellTiter-Glo
Description: as §5, §6

HCT_116 cells [5] = experiment: cell growth-suppressive activity test; assay type: cell-based; settings: 2D and 3D culture, 72 hours, CellTiter-Glo
Description: as §5, §6

colo-205 cells = experiment: cell growth-suppressive activity test; assay type: cell-based; settings: 2D and 3D culture, 72 hours, CellTiter-Glo
Description: as §5, §6

colo-201 cells = experiment: cell growth-suppressive activity test; assay type: cell-based; settings: 2D and 3D culture, 72 hours, CellTiter-Glo
Description: as §5, §6

24 kinds of cell lines = settings: GI50
Description: as §5
The two-dimensional culture (hereinafter sometimes referred to as 2D culture) and the three-dimensional culture (hereinafter sometimes referred to as 3D culture) were performed by seeding the cells in a 96-well plate at 1×10^3 cells/150 μL/well and 2×10^3 cells/75 μL/well, respectively, and performing drug treatment on the following day. […] Cell growth was measured by measuring intracellular ATP amounts at the time of the drug treatment and 72 hours after the drug treatment. […] The total volume of each well was transferred to a white 96-well plate (manufactured by Nunc) and measured for its light emission intensity with a Wallac 1420 multilabel counter (manufactured by Perkin Elmer). […]

[6] = test system: phosphorylation of MEK and ERK; experiment: MEK and ERK phosphorylation inhibition by western blotting; assay type: cell-based; settings: any of the cell lines (A375, HT29, DLD-1, HCT_116, SW48), 0.3-10 μM
Description: as §4

In the case of `Cn1cnc2c(F)c(Nc3ccc(Br)cc3Cl)c(C(=O)NOCCO)cc21` [AZD6244], the IC50 (MEK; non-ATP-competitive manner, read-out: MEK inhibition, IC50 value) is given as ~0.012 µM.

For `O=C(NOCC1CC1)c1ccc(F)c(F)c1Nc1ccc(I)cc1Cl` [PD184352], the “apoptosis induction / influence on cell cycle (sub-G1 population)” value (from here on “apoptosis induction / influence”) (SW48 cells [1]) was “apoptosis was induced”, the “apoptosis induction / influence” value (DLD-1 cells) was “did not exhibit any particular influence” and the “apoptosis induction / influence” value (HT29 cells) was “remarkable G1 arrest was induced but no apoptosis was induced”. The “apoptosis induction / influence” value (HCT_116 cells [2]) was “apoptosis was induced”, the “apoptosis induction / influence” value (A375 cells; at the concentration that completely inhibited phosphorylation of ERK (MEK and ERK for SB590885), 48 hours) was “remarkable G1 arrest was induced but no apoptosis was induced” and the apoptosis induction (A375 cells; concentration higher than that completely inhibiting phosphorylation of ERK) was “Apoptosis was induced”.

In the case of `O=C(NOC[C@H](O)CO)c1ccc(F)c(F)c1Nc1ccc(I)cc1F` [PD0325901], the “clinical response, total of a partial response and a complete response” value [3] is given as “about 10%”.

With `N#CC(=C(/N)Sc1ccccc1N)/C(C#N)=C(\N)Sc1ccccc1N` [U0126] the “sensitivity in growth-suppressive activity test (from GI50)” value (from here on “sensitivity … (from GI50)”) (SK-MEL-1 cells) was “high sensitivity”, the “sensitivity … (from GI50)” value (SW48 cells [4]) was “high sensitivity” and the “sensitivity … (from GI50)” value (HCT_116 cells [5]) was “high sensitivity”. For the same compound, the “sensitivity … (from GI50)” value (colo-205 cells) was “high sensitivity”, the “sensitivity … (from GI50)” value (colo-201 cells) was “high sensitivity” and the “tendency of drug sensitivity over the cell line panel compared with SMK-17” value (24 kinds of cell lines) was 23 out of the 24 kinds of cell lines exhibited a tendency of drug sensitivity similar to that in the case of SMK-17.

For `CNC(=O)c1cc(Oc2ccc(NC(=O)Nc3ccc(Cl)c(C(F)(F)F)c3)cc2)ccn1` [sorafenib], the “inhibitory effect on the phosphorylation of MEK and ERK” value [6] was “did not provide complete inhibitory effects”.
